Target: T1, CDK2 (Homo sapiens, UniProt P24941)
T1 construct: endogenous in cells; host or cells: MKN1 cells
Assay: CDK2 degradation in MKN1 cells (AlphaLISA)
Type: cell-based
Set-up: key to CDK2 degradation 14 h: Mean external-Abs DC50 (nM): A (<100 nM); B (≥100-500 nM); C (>500-1000 nM); D (>1000 nM); E (not achieved)
Details: 14 h incubation; for DC50: read-out: CDK2 degradation 14 h: Mean external-Abs DC50
How it was run: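 MKN1 cells (2e4/well) treated 14 h at 37° C with 11-point 1:5 dilutions (0.001 nM-10 μM, 0.1% DMSO). CDK2 in lysates quantified by AlphaLISA, no-cell background subtracted; DC50 from four-parameter logistic fit.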

Row | SMILES | CDK2 degradation 14 h: Average Dmax % | DC50 | CDK2 degradation 14 h: Mean external-Abs DC50 (nM)
1 | Cc1cc(S(=O)(=O)C2CC3(CCN(CCN4CCN(c5ccc6c(c5F)n(C)c(=O)n6C5CCC(=O)NC5=O)CC4)CC3)C2)ccc1Nc1ncc2cc(Cl)c(=O)n(C3CCCC3)c2n1 (centres unmarked) [I-826] | B (B (>50% -75%)) | < 100 nM | –
2 | Cc1cc(S(=O)(=O)NC23CCC(CN4CCN(c5ccc(C6CCC(=O)NC6=O)cc5)CC4)(CC2)CC3)ccc1Nc1ncc(C(F)(F)F)c(N2CCC[C@](C)(O)C2)n1 (some centres unmarked) [I-802] | A (A (>75% o)) | < 100 nM | –
3 | CC1(O)CCCN(c2nc(Nc3ccc(S(=O)(=O)NC4CCC(CN5CCN(c6ccc(C7CCC(=O)NC7=O)c(F)c6)CC5)CC4)cc3C(F)F)ncc2C(F)(F)F)C1 (centres unmarked) [I-944] | A (A (>75% o)) | < 100 nM | –
4 | Cc1cc(S(=O)(=O)C2CC3(CCN(CC4CCN(c5ccc(NC6CCC(=O)NC6=O)cc5)CC4)CC3)C2)ccc1Nc1ncc2cc(Cl)c(=O)n(C3CCCC3)c2n1 (centres unmarked) [I-37] | B (B (>50% -75%)) | 100 to 500 nM | –
5 | Cc1cc(S(=O)(=O)N2CCC(N(CC(F)F)CC3CCN(c4cccc5c4n(C)c(=O)n5C4CCC(=O)NC4=O)CC3)CC2)ccc1Nc1ncc2cc(Cl)c(=O)n(C3CCCC34CC4)c2n1 (centres unmarked) [I-353] | D (D (<25%)) | > 1000 nM | –
6 | CC1(O)CCCN(c2nc(Nc3ccc(S(=O)(=O)N4CCN(CC5CCC(Oc6ccc(C7CCC(=O)NC7=O)cc6)CC5)CC4)cc3C(F)F)ncc2C(F)(F)F)C1 (centres unmarked) [I-1044] | D (D (<25%)) | > 1000 nM | –
7 | Cc1cc(S(=O)(=O)C2CC3(CCN(CC4CCN(c5cccc6c5n(C)c(=O)n6C5CCC(=O)NC5=O)CC4)CC3)C2)ccc1Nc1ncc(C(F)(F)F)c(C2CCC(C)(O)CC2)n1 (centres unmarked) [I-119] | A (A (>75% o)) | < 100 nM | –
8 | COCc1cc(S(=O)(=O)NC2CCC(CN3CCN(c4ccc(C5CCC(=O)NC5=O)c(F)c4)CC3)CC2)ccc1Nc1ncc(C(F)(F)F)c(N2CCCC(C)(O)C2)n1 (centres unmarked) [I-1070] | A (A (>75% o)) | < 100 nM | –
9 | Cc1cc(S(=O)(=O)N2CCC(CN3CCN(c4cccc5c4n(C)c(=O)n5C4CCC(=O)NC4=O)CC3)CC2)ccc1Nc1ncc2ccc(=O)n(C3CCCC3)c2n1 (centres unmarked) [I-451] | C (C (>25% -50%)) | – | E

Other lines, results leading:

Row | CDK2 degradation 14 h: Average Dmax % | DC50 | CDK2 degradation 14 h: Mean external-Abs DC50 (nM) | SMILES
10 | A (A (>75% o)) | < 100 nM | – | Cc1cc(S(=O)(=O)C2CCC(N3CCC(CN(C)c4cccc5c4n(C)c(=O)n5C4CCC(=O)NC4=O)CC3)CC2)ccc1Nc1ncc2cc(Cl)c(=O)n(C3CCCC3)c2n1 (centres unmarked) [I-33]
11 | A (A (>75% o)) | < 100 nM | – | Cc1cc(S(=O)(=O)C(C)(C)CCO[C@H]2CC[C@H](CN3CCC(c4ccc5c(c4)n(C)c(=O)n5C4CCC(=O)NC4=O)CC3)CC2)ccc1Nc1ncc2cc(Cl)c(=O)n(C3CCCC3)c2n1 (some centres unmarked) [I-65]
12 | D (D (<25%)) | > 1000 nM | – | Cn1c(=O)n(C2CCC(=O)NC2=O)c2cccc(CCCOCCOCCOCCOCC(=O)N3CCC(Nc4ncc5cc(C(F)F)c(=O)n([C@@H]6CCC[C@]6(C)O)c5n4)CC3)c21 (some centres unmarked) [I-502]
13 | C (C (>25% -50%)) | > 1000 nM | – | Cc1cc(S(=O)(=O)N2CC3(CC(OCCN4CCC(c5ccc6c(c5)n(C)c(=O)n6C5CCC(=O)NC5=O)CC4)C3)C2)ccc1Nc1ncc2cc(Cl)c(=O)n(C3CCCC3)c2n1 (centres unmarked) [I-418]
14 | A (A (>75% o)) | < 100 nM | – | Cc1nn(C2CCC(=O)NC2=O)c2ccc(N3CCN(CC4CCC(NS(=O)(=O)c5ccc(Nc6ncc(C(F)(F)F)c(N7CCCC(C)(O)C7)n6)c(F)c5)CC4)CC3)cc12 (centres unmarked) [I-1065]
15 | A (A (>75% o)) | < 100 nM | – | Cc1cc(S(=O)(=O)NC2CC(N3CCN(CC4CCN(c5cc(NC6CCC(=O)NC6=O)ccc5Cl)CC4)CC3)C2)ccc1Nc1ncc(C(F)(F)F)c(N2CCCC(C)(O)C2)n1 (centres unmarked) [I-720]
16 | A (A (>75% o)) | < 100 nM | – | Cc1cc(S(=O)(=O)NC2CC(N3CCN(CC4CCN(c5cccc6c5n(C)c(=O)n6C5CCC(=O)NC5=O)CC4)CC3)C2)ccc1Nc1ncc(C(F)(F)F)c(N2CCCCC2)n1 (centres unmarked) [I-795]

Reference: patent publication US20240173419A1, “CDK2 DEGRADERS AND USES THEREOF” (Kymera Therapeutics, Inc., priority 2022, published 2024)
